According to the supplement of paper PMC8671470:

Legend:
Assay in all cases: cell viability (% survival relative to DMSO control); higher = less cytotoxic
Settings in all cases: 72 h
MV4-11 = test system: MV4-11
Procedure: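 8x8 drug-combination matrices (0–5000 nM; rosiglitazone and lestaurtinib 0–1000 nM) were run in MV4-11 cells for 72 h with CellTiter-Glo read-out. Survival is normalised to DMSO and 10 µM bortezomib and clipped at 100%.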

HL-60 = test system: HL-60
Procedure: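 8x8 drug-combination matrices (0-5000 nM; rosiglitazone and lestaurtinib 0-1000 nM) were run in HL-60 cells for 72 h with a CellTiter-Glo read-out. Survival is normalised to DMSO and 10 µM bortezomib and clipped at 100%. Bliss synergy was analysed in SynergyFinder.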

BV-173 = test system: BV-173
Procedure: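 8x8 drug-combination matrices (0–5000 nM; rosiglitazone and lestaurtinib 0–1000 nM) were run in BV-173 cells for 72 h with CellTiter-Glo read-out. Survival is normalised to DMSO and 10 µM bortezomib and clipped at 100%.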

Oc1ncc(F)c(O)n1 [5-fluorouracil] + C[C@]12O[C@H](C[C@]1(O)CO)n1c3ccccc3c3c4c(c5c6ccccc6n2c5c31)CNC4=O [Lestaurtinib]
cell viability [%]
Settings	drug1 concentration 5 nM	drug1 concentration 10 nM	drug1 concentration 50 nM	drug1 concentration 100 nM	drug1 concentration 500 nM	drug1 concentration 1000 nM	drug1 concentration 5000 nM
BV-173, drug2 concentration 1 nM	> 100	> 100	> 100	> 100	86.1	79.2	47.6
BV-173, drug2 concentration 5 nM	> 100	81.2	85.7	86.6	> 100	82.8	69.9
BV-173, drug2 concentration 10 nM	93	95.9	87.7	> 100	72.4	74.2	71.8
BV-173, drug2 concentration 50 nM	60.2	59.9	50	68.2	58.5	59.2	35
BV-173, drug2 concentration 100 nM	68	43.6	46.5	47.5	40.6	44.3	20.2
BV-173, drug2 concentration 500 nM	18.1	36.8	20.9	25.8	20.4	20.7	9.65
BV-173, drug2 concentration 1000 nM	19.6	37.9	24.6	30.9	42.5	27.9	8.5
HL-60, drug2 concentration 1 nM	> 100	> 100	53	> 100	89.7	66.2	62.9
HL-60, drug2 concentration 5 nM	> 100	79.6	> 100	71.6	91.6	64.7	80.9
HL-60, drug2 concentration 10 nM	73.2	98.7	> 100	> 100	84.2	50.3	66.5
HL-60, drug2 concentration 50 nM	72	85.6	56.1	67.8	53.5	77.1	43
HL-60, drug2 concentration 100 nM	60.5	67.5	68.8	63.6	74.3	51.8	32.6
HL-60, drug2 concentration 500 nM	32.8	32.6	48.9	41.5	35.7	33.5	26.1
HL-60, drug2 concentration 1000 nM	8.89	19.8	19.4	20.8	52.9	25.7	0
MV4-11, drug2 concentration 1 nM	88.4	> 100	> 100	88.1	69.4	68.5	12.8
MV4-11, drug2 concentration 5 nM	70.5	43	50.6	46	55.2	41.9	21.9
MV4-11, drug2 concentration 10 nM	26.4	23.6	28.6	42.1	19	25.7	13.7
MV4-11, drug2 concentration 50 nM	2.49	4.72	2.14	3.46	4.09	5.74	1.61
MV4-11, drug2 concentration 100 nM	3.32	0.99	1.1	1.76	0.68	3.09	-0.36
MV4-11, drug2 concentration 500 nM	0.17	-0.1	1.37	1.89	0.91	0.05	0.08
MV4-11, drug2 concentration 1000 nM	-1.49	-0.48	0.53	3.29	2.21	1.49	0.17

CN(C)C(=O)n1nnnc1Cc1ccc(-c2ccccc2)cc1 + CCOC(=O)N1c2ccc(C(F)(F)F)cc2[C@@H](N(Cc2cc(C(F)(F)F)cc(C(F)(F)F)c2)C(=O)OC)C[C@H]1CC [Torcetrapib]
cell viability [%]
Settings	drug1 concentration 5 nM	drug1 concentration 10 nM	drug1 concentration 50 nM	drug1 concentration 100 nM	drug1 concentration 500 nM	drug1 concentration 1000 nM	drug1 concentration 5000 nM
BV-173, drug2 concentration 5 nM	> 100	> 100	> 100	83.6	86.7	61	-1.29
BV-173, drug2 concentration 10 nM	79.6	99.9	97.9	77.9	64.3	67	-0.12
BV-173, drug2 concentration 50 nM	70.5	94.4	69.5	70.6	61	53.7	1.13
BV-173, drug2 concentration 100 nM	62.8	69	80.1	87.3	> 100	45.6	-0.25
BV-173, drug2 concentration 500 nM	73.5	> 100	> 100	83.8	95.5	86	0.45
BV-173, drug2 concentration 1000 nM	80.8	68.8	94.8	94.5	> 100	71.3	1.28
BV-173, drug2 concentration 5000 nM	61.4	64.7	62	69.6	77.6	24.2	0
HL-60, drug2 concentration 5 nM	89.2	> 100	64.3	> 100	94.3	> 100	8.91
HL-60, drug2 concentration 10 nM	> 100	> 100	> 100	> 100	> 100	90	15.4
HL-60, drug2 concentration 50 nM	81.6	> 100	86.8	80.8	79.3	87.4	6.94
HL-60, drug2 concentration 100 nM	91.3	> 100	> 100	82.7	> 100	80	14.4
HL-60, drug2 concentration 500 nM	> 100	> 100	> 100	> 100	> 100	85	6.21
HL-60, drug2 concentration 1000 nM	> 100	> 100	> 100	> 100	98.3	> 100	13
HL-60, drug2 concentration 5000 nM	> 100	> 100	> 100	> 100	> 100	78.8	0
MV4-11, drug2 concentration 5 nM	> 100	95	> 100	89.1	76.8	> 100	0.81
MV4-11, drug2 concentration 10 nM	94.9	96	> 100	85	74.3	79.8	3.27
MV4-11, drug2 concentration 50 nM	> 100	> 100	> 100	87.6	88.5	97.3	4.29
MV4-11, drug2 concentration 100 nM	> 100	> 100	> 100	> 100	> 100	77.1	1.95
MV4-11, drug2 concentration 500 nM	> 100	> 100	> 100	98	> 100	> 100	1.23
MV4-11, drug2 concentration 1000 nM	98	99.8	85.5	93	99.7	> 100	2.41
MV4-11, drug2 concentration 5000 nM	98.2	> 100	> 100	98.2	> 100	94.2	2.53

CN(C)CCNC(=O)c1cccn2c(=O)c3cc4ccccc4cc3nc12 [Bmh-21] + O=C(O)CC[N+](=O)[O-] [3-nitropropionic acid]
cell viability [%]
Settings	drug1 concentration 5 nM	drug1 concentration 10 nM	drug1 concentration 50 nM	drug1 concentration 100 nM	drug1 concentration 500 nM	drug1 concentration 1000 nM	drug1 concentration 5000 nM
BV-173, drug2 concentration 5 nM	> 100	> 100	> 100	95.6	6.08	1.91	0.1
BV-173, drug2 concentration 10 nM	94.1	> 100	> 100	> 100	19.6	3.29	-1.01
BV-173, drug2 concentration 50 nM	> 100	79.4	83.4	> 100	0.68	35.3	-0.78
BV-173, drug2 concentration 100 nM	82.9	> 100	> 100	94.8	2.69	-0.53	0.59
BV-173, drug2 concentration 500 nM	> 100	86.6	88.3	> 100	38.2	68	-0.99
BV-173, drug2 concentration 1000 nM	92	> 100	> 100	66.9	10.4	-1.13	0.46
BV-173, drug2 concentration 5000 nM	> 100	> 100	> 100	99.5	0.21	-1.32	0
HL-60, drug2 concentration 5 nM	76.1	> 100	> 100	> 100	34.7	29.4	11.4
HL-60, drug2 concentration 10 nM	85.5	> 100	> 100	89.3	54.7	48.5	34
HL-60, drug2 concentration 50 nM	90.2	83.1	> 100	> 100	57	52.6	7.17
HL-60, drug2 concentration 100 nM	> 100	> 100	> 100	> 100	45.9	28.8	4.7
HL-60, drug2 concentration 500 nM	> 100	> 100	81.7	> 100	53.9	70	13.8
HL-60, drug2 concentration 1000 nM	> 100	62.9	> 100	> 100	77.4	1.67	50.4
HL-60, drug2 concentration 5000 nM	> 100	> 100	68.7	> 100	22	24.2	0
MV4-11, drug2 concentration 5 nM	92.2	> 100	96.9	80.6	72.2	88.4	29.9
MV4-11, drug2 concentration 10 nM	> 100	> 100	> 100	> 100	39.5	77.4	34.1
MV4-11, drug2 concentration 50 nM	91.9	88.3	90.3	> 100	73.8	78.7	57.4
MV4-11, drug2 concentration 100 nM	81.9	> 100	> 100	93.2	77.6	84.5	91.6
MV4-11, drug2 concentration 500 nM	> 100	99.8	96.2	95.9	> 100	96.8	11.1
MV4-11, drug2 concentration 1000 nM	90.9	89.5	> 100	98.2	> 100	57.3	68.4
MV4-11, drug2 concentration 5000 nM	> 100	77.9	66.9	> 100	62.8	59.4	43.1
